Columns and labels:
[1] = test system: H4IIEC3 cells; assay: Triglyceride concentration in culture solution of H4IIEC3 hepatocytes; format: cell-based, rat; conditions: 2 μM in culture medium; 24 hours; relative to DMSO group
Description: Specifically, first, H4IIEC3 cells (1×10^5 cells/well) seeded in advance in a 48-well plate, which are a cell line of rat hepatocytes, were cultured for 1 day. Next, culture medium exchange was carried out so that a high glucose DMEM (serum-free) containing each compound (concentration in culture medium: 2 μM) or DMSO as a control was 200 μL/well, and then the cells were incubated for 24 hours. Next, the triglyceride concentration in the culture solution was measured using a Triglyceride E-Test WAKO (FUJIFILM Corporation). In FIG. 7A to FIG. 7F, the triglyceride concentration in each compound addition group was indicated as a relative percentage in a case where the triglyceride concentration in the DMSO addition group was set to 100%.

[2] = biological target: T1, human SREBP-1c (Homo sapiens, UniProt P36956); assay: Gal4-SREBP-1c luciferase reporter assay in HepG2 stable expression strain; format: cell-based; conditions: EPA 100 or 300 μM, OA 300 μM, Cho 100 μM, 25HCho 30 μM in culture medium; 24 hours; vs DMSO
T1 construct: expressed in transfected cells
From the text: A pcDNA3.1 (+)-Hyg vector (manufactured by Thermo Fisher Scientific, Inc. under the brand of Invitrogen) was inserted with DNA fragments of a firefly luciferase reporter cloned from a pGL3-Basic vector (manufactured by Promega Corporation), a pSV40-Renilla luciferase reporter cloned from a pRL-SV40 vector (manufactured by Promega Corporation), and a human SREBP-1c cloned from a pTK-HSV-hSREBP-1c, whereby a vector having a structure shown in FIG. 1 was constructed. The base sequence of the vector is set forth in SEQ ID NO: 2. In FIG. 1, Gal4-BP1 is a human SREBP-1c that is obtained by fusing sequences of the Gal4-DNA binding domain and the minimal VP16-AD to the N-terminal side. 17 m8 is a DNA sequence to which the Gal4-DNA binding domain binds. CTCF is a DNA sequence that acts as an insulator, which blocks the action of transcription factors.
HepG2 cells, which are a cell line derived from human liver cancer, were cultured in advance to a confluency of 10% confluent in Dulbecco's Modified Eagle's Medium (DMEM) (containing 25 mM glucose, 100 units/mL penicillin, […] streptomycin sulfate, and 10 v/v % fetal bovine serum (FBS)) and then transfected with the vector obtained in (1) described above, by using a Lipofectamine 3000 transfection reagent (manufactured by Thermo Fisher Scientific, Inc. under the brand of Invitrogen), 5 whereby the vector was inserted into the genome. […] Next, a Reporter lysis buffer (Promega Corporation) was added to lyse the cells, and luciferase activity was measured with a luminometer.
Next, each candidate compound (concentration in culture medium: 2 or 5 μM) was added to the cell line (2×10^4 cells/well) seeded in a plurality of 384-well plates, which had been constructed in (2) described above, so that one kind of each compound was added to one well, and incubation was carried out for 24 hours. […] Next, Steady-Glo (a mixture of luciferin and a Lysis buffer) was added thereto, and then luciferase activity was measured with a luminometer. […]

[3] = biological target: T2, human SREBP-2 (Homo sapiens, UniProt Q12772); assay: Gal4-SREBP-2 luciferase reporter assay in HepG2 stable expression strain; format: cell-based; conditions: EPA 100 or 300 μM, 25HCho 30 μM in culture medium; 24 hours; vs DMSO
T2 construct: expressed in transfected cells
From the text: In order to exclude compounds such as cholesterol and 25-hydroxycholesterol, which have an inhibitory action on both SREBP-1 and SREBP-2, first, a vector having the structure shown in FIG. 3 was constructed using the same method as in “1.” described above, except that a DNA fragment of human SREBP-2 cloned from pTK-HSVhSREBP-2 was used instead of the DNA fragment of human SREBP-1c. The base sequence of the vector is set forth in SEQ ID NO: 3. In FIG. 3, Gal4-BP2 is a human SREBP-2 that is obtained by fusing sequences of the Gal4-DNA binding domain and the minimal VP16-AD to the N-terminal side.
a stable expression strain of HepG2, which stably expressed firefly luciferase, was established using the same method as in “1. (2)” described above, except that the vector obtained in “2. (1)” described above was used. […] Next, a Reporter lysis buffer (Promega Corporation) was added to lyse the cells, and luciferase activity was measured with a luminometer. […]
Among the 39 kinds of compounds, 23 kinds of compounds were selected by searching the PAINS database (https://www.rdkit.org/docs/source/rdkit. Chem.rdfiltercatalog.html) and excluding, from targets of interest, compounds for which non-specific action had been reported. […] It is noted that the SREBP-1 inhibition rate and the SREBP-2 inhibition rate in the reporter assay were calculated using the following method. […]

T1 sequence (P36956 with tags, fused parts or gaps isoform P36956-4 limits assumed): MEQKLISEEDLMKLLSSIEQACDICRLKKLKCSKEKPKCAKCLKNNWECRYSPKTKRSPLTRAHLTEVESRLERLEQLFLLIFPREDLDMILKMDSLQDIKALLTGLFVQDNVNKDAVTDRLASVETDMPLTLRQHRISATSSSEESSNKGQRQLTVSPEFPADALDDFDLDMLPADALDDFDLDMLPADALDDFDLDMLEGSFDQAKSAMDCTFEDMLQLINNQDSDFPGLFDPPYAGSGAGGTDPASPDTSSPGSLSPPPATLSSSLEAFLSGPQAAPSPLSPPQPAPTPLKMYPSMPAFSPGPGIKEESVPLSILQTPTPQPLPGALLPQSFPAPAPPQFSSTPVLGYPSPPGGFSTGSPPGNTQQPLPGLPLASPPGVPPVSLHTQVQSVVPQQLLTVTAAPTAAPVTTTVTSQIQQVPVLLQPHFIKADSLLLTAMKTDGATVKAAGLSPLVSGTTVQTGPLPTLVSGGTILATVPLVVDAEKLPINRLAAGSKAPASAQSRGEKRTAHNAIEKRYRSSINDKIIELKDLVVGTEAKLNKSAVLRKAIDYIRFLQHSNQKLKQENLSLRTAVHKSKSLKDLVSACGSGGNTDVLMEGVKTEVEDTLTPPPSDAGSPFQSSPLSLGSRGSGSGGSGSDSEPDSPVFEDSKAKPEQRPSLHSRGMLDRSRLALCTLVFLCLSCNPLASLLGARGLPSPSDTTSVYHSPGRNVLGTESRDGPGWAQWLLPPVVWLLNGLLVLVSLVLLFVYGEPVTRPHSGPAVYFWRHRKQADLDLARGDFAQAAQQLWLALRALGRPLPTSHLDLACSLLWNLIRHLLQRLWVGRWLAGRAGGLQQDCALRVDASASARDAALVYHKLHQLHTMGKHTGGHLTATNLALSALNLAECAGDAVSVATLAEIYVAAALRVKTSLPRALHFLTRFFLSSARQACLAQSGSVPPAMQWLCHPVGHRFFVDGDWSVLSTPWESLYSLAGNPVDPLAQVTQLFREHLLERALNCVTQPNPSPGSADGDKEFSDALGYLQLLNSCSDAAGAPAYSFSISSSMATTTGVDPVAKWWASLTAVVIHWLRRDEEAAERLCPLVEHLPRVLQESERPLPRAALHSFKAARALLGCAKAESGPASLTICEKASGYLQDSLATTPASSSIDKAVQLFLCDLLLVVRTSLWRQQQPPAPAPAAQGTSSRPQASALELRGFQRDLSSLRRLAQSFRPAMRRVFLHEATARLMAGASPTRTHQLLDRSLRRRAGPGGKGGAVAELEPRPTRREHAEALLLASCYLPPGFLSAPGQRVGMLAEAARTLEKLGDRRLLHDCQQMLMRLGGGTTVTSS
T2 sequence (Q12772 with tags, fused parts or gaps limits assumed): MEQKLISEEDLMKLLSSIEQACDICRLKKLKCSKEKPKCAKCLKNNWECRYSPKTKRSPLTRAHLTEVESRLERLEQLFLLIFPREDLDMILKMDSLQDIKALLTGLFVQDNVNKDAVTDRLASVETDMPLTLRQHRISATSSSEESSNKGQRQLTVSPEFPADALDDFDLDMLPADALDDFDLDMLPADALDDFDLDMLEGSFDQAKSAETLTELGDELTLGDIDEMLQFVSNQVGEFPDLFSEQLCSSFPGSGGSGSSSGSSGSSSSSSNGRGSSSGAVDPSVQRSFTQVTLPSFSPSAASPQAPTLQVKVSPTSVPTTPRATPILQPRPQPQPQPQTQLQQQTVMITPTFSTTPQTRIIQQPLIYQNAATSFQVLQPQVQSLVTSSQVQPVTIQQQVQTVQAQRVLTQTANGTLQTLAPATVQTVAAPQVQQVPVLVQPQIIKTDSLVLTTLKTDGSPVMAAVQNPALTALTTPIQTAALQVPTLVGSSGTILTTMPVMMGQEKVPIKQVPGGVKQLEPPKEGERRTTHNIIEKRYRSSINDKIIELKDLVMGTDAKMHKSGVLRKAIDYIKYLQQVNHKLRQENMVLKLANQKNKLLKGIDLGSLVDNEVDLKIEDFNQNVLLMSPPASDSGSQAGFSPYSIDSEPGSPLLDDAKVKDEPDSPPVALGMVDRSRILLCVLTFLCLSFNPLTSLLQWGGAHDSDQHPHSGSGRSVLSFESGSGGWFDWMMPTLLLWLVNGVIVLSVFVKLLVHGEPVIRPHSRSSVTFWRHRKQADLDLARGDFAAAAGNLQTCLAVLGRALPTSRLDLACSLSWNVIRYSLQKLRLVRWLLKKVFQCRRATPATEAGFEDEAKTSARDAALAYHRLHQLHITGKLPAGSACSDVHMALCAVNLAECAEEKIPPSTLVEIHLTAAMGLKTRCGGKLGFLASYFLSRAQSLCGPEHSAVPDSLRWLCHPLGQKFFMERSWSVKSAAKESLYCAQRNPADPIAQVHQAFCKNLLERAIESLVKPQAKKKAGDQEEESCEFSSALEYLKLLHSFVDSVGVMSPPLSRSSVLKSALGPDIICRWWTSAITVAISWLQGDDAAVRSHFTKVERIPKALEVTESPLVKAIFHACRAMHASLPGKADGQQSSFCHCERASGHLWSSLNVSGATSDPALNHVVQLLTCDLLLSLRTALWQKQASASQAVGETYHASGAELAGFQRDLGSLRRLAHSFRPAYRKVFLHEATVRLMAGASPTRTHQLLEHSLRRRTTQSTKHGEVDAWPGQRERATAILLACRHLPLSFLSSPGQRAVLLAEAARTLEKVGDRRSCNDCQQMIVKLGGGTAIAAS

For `CCCOc1ccccc1OC(=O)CN1C(=O)COc2ccccc21` [(5)], the “triglycerides in culture solution of cultured hepatocytes (FIG. 7A-7F)” value (“triglycerides in culture solution” for short) [1] was “reduce triglycerides”.

For `CSc1nn(-c2ccc([N+](=O)[O-])cc2)c(N)c1C(N)=O` [(6), 5-amino-3-methylsulfanyl-1-(4-nitrophenyl)pyrazole-4-carboxamide], the “triglycerides in culture solution” value [1] was “reduce triglycerides”.

For `C=CCNc1nc(-c2ccc(N3CCCC3=O)cc2)cs1` [(11)], the “triglycerides in culture solution” value [1] was “reduce triglycerides”.

For `COc1ccc2c(c1)[nH]c1c(C)nccc12` [(16)], the “triglycerides in culture solution” value [1] was “reduce triglycerides”.

`CCc1c2c(nc3ccc(O)cc13)-c1cc3c(c(=O)n1C2)COC(=O)[C@]3(O)CC` [(22a)] was tested, and the “triglycerides in culture solution” value [1] was “reduce triglycerides”.

In the case of `CC(C)CCC[C@@H](C)[C@H]1CC[C@H]2[C@@H]3CC=C4C[C@@H](O)CC[C@]4(C)[C@H]3CC[C@]12C` [Cho, cholesterol], the “luciferase activity (SREBP-1 reporter, FIG. 2)” value [2] is reported as “luciferase activity was reduced”.

In the case of `C[C@H](CCCC(C)(C)O)[C@H]1CC[C@H]2[C@@H]3CC=C4C[C@@H](O)CC[C@]4(C)[C@H]3CC[C@]12C` [Compound 25HCho, 25-hydroxycholesterol], the “luciferase activity (SREBP-1 reporter, FIG. 2)” value [2] is reported as “luciferase activity was reduced” and the “luciferase activity (SREBP-2 reporter, FIG. 4)” value [3] is reported as “luciferase activity was reduced”.

With `CCCCCCCC/C=C\CCCCCCCC(=O)O` [OA, oleic acid] the “luciferase activity (SREBP-1 reporter, FIG. 2)” value [2] was “luciferase luminescence was observed”.

Reference: patent US20250082612A1, “SREBP-1 INHIBITOR AND PHARMACEUTICAL COMPOSITION FOR TREATING […]” (Jichi Medical University, priority 2021, published 2025)
